target: T1, Calpain I from human erythrocytes (Homo sapiens, UniProt P07384); test: Calpain I inhibition, Suc-Leu-Tyr-AMC hydrolysis (KI); type: biochemical; conditions: Table 1, Z-Leu--AA--CONHR; read-out: KI Cal I
T1 construct: Calpain I was purified from human erythrocytes; from tissue; host or cells: human erythrocytes
T1 sequence (P07384 1-714): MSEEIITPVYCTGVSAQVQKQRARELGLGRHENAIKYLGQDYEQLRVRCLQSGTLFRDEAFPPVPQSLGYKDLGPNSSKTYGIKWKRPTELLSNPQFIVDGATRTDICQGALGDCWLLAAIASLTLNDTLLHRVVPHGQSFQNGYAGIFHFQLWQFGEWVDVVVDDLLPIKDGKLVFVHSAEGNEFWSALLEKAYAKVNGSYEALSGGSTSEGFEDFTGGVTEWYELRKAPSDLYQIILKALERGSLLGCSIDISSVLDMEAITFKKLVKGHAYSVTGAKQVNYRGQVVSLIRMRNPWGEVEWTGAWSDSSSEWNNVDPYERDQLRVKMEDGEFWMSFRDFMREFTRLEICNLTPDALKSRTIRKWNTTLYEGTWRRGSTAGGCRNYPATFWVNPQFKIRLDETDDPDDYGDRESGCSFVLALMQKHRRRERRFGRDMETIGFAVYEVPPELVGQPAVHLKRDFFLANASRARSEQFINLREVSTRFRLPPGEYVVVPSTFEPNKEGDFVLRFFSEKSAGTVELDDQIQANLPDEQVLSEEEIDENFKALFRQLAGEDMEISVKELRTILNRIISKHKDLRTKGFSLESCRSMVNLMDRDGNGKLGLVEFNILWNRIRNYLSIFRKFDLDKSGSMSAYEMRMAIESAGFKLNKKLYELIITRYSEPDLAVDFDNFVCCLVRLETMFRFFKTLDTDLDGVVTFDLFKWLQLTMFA
T1 sequence (P04632 1-268 partner): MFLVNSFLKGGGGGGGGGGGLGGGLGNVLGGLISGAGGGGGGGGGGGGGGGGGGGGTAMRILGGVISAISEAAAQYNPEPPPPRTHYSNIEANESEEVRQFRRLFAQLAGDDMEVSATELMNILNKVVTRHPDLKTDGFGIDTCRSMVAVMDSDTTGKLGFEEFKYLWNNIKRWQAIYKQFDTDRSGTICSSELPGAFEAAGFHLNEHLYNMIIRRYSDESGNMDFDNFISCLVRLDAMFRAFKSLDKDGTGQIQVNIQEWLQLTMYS
Protocol: HEPES, heparin, and A23187 were obtained from Calbiochem. Suc-Leu-Tyr-AMC and chromogenic substrates were obtained from Sigma. Calpain I was purified from human erythrocytes according to the method of Kitahara (Kitahara et al., J. Biochem. 95, 1759-1766) omitting the Blue-Sepharose step. Calpain II from rabbit muscle and cathepsin B were purchased from Sigma. Papain was purchased from Calbiochem.
Peptide α-ketoamides were assayed as reversible enzyme inhibitors. Various concentrations of inhibitors in Me2 SO were added to the assay mixture which contained buffer and substrate. The reaction was started by the addition of the enzyme and the hydrolysis rates were followed spectrophotometrically or fluorimetrically.
Calpain I from human erythrocytes and calpain II from rabbit were assayed using Suc-Leu-Tyr-AMC Sasaki et al., J. Biol. Chem. 259, 12489-12494 (1984); incorporated herein by reference!, and the AMC (7-amino-4-methylcoumarin) release was followed fluorimetrically (excitation at 380 nm, and emmision at 460 nm). Calpains were assayed in 25 mM Tris pH=8.0, 10 mM CaC12. Fluorescence was followed using a Gilson FL-1A fluorometer or a Perkin-Elmer 203 Fluorescence spectrometer. Cathepsin B was assayed in 20 mM sodium acetate pH=5.2, 0.5 mM dithiothreitol using Bz-Phe-Val-Arg-p-nitroanilide as substrate. Alternately, cathepsin B was assayed with Z-Arg-Arg-AFC Barrett and Kirschke, Methods Enzymol. 80, 535-561 (1981); incorporated herein by reference!, and the AFC (7-amino-4-trifluoromethylcoumarin) release was followed fluorimetrically (excitation at 400 nm and emmision at 505 nm). Papain was assayed in 100 mM KPO4, 1 mM EDTA, 2.5 mM cysteine pH=6.0 using Bz-Arg-AMC or Bz-Arg-NA Kanaoka et al., Chem. Pharm. Bull. 25, 3126-3128 (1977); incorporated herein by reference! as a substrate. The AMC (7-amino-4-methylcoumarin) release was followed fluorimetrically (excitation at 380 nm, and emmision at 460 nm). Enzymatic hydrolysis rates were measured at various substrate and inhibitor concentrations, and KI values were determined by either Lineweaver-Burk plots or Dixon plots.
A 0.1M Hepes, 0.5M NaCl, pH 7.5 buffer was utilized for human leukocyte elastase (HLE), porcine pancreatic elastase (PPE), chymotrypsin and cathepsin G. A 0.1 Hepes, 0.01 M CaCl2, pH 7.5 buffer was utilized for trypsin, plasmin, and coagulation enzymes. A 50 mM Tris.HCl, 2 mM EDTA, 5 mM cysteine, pH 7.5 was used as a buffer for papain. A 88 mM KH2 PO4, 12 mM Na2 HPO4, 1.33 mM EDTA, 2.7 mM cysteine, pH 6.0 solution was used as a buffer for cathepsin B. A 20 mM Hepes, 10 mM CaCl2, 10 mM mercatoethanol, pH 7.2 buffer was utilized for calpain I and calpain II.

SMILES	Ki [nM]
CCC(NC(=O)C(CC(C)C)NC(=O)OCc1ccccc1)C(=O)C(=O)NCCCN1CCCc2ccccc21 (stereo not drawn) [Z-Leu-Abu-CONH--(CH2)3 -1-Tetrahydroquinolinyl]	370
CCC(NC(=O)C(CC(C)C)NC(=O)OCc1ccccc1)C(=O)C(=O)NCc1nc(C)cs1 (stereo not drawn) [Z-Leu-Abu-CONH-CH2 -2-(4-methylthiazole), Z-Leu-Abu-CONH--CH2 -2-(4-Methyl-2-thiazolyl)]	34000
CCC(NC(=O)[C@H](CC(C)C)NC(=O)OCc1ccccc1)C(=O)C(=O)NCc1ccc2ccccc2n1 (stereo partly drawn) [Z-Leu-Abu-CONH-CH2 -2-quinolinyl, Z-Leu-Abu-CONH--CH2 -2-Quinolinyl]	130
CC(C)CC(NC(=O)OCc1ccccc1)C(=O)NC(Cc1ccccc1)C(=O)C(=O)NCCNC(=O)CCCCC1SCC2NC(=O)NC21 (stereo not drawn) [Z-Leu-Phe-CONH-(CH2)2 NH-biotinyl, Z-Leu-Phe-CONH--(CH2)2 NH-Biotinyl]	220
CC(C)CC(NC(=O)OCc1ccccc1)C(=O)NC(Cc1ccccc1)C(=O)C(=O)NCCCN1CCCc2ccccc21 (stereo not drawn) [Z-Leu-Phe-CONH--(CH2)3-1-Tetrahydroquinolinyl]	380

Other lines, results leading:

Ki [nM]	SMILES
9500	CCC(NC(=O)C(CC(C)C)NC(=O)OCc1ccccc1)C(=O)C(=O)NCc1ccc[n+]([O-])c1 (stereo not drawn) [Z-Leu-Abu-CONH-CH2 -3-pyridyl-N-oxide, Z-Leu-Abu-CONH--CH2 -3-Pyridyl-N-oxide]
9000	CCC(NC(=O)C(CC(C)C)NC(=O)OCc1ccccc1)C(=O)C(=O)NCc1cc(=O)[nH]c(=O)[nH]1 (stereo not drawn) [Z-Leu-Abu-CONH-CH2 -6-uracil, Z-Leu-Abu-CONH--CH2 -6-Uracil]
220	CC(C)CC(NC(=O)OCc1ccccc1)C(=O)NC(Cc1ccccc1)C(=O)C(=O)NCCCN1CCc2ccccc2C1 (stereo not drawn) [Z-Leu-Phe-CONH--(CH2)3-2-Tetrahydroisoquinolinyl]

same assay, conditions: Table 2, Z-Leu--AA--CONH--CH2 CH(OH)-R; read-out: KI Cal I

Ki [nM]	SMILES
270	CCC(NC(=O)C(CC(C)C)NC(=O)OCc1ccccc1)C(=O)C(=O)NCC(O)c1cccc(Oc2ccc(Cl)c(Cl)c2)c1 (stereo not drawn) [Z-Leu-Abu-CONH--CH2 CH(OH)C6 H4 -3-OC6 H3 (3,4-Cl2)]
120	CCC(NC(=O)C(CC(C)C)NC(=O)OCc1ccccc1)C(=O)C(=O)NCC(O)c1cccc2ccccc12 (stereo not drawn) [Z-Leu-Abu-CONH-CH2 CH(OH)-1-C10 H7, Z-Leu-Abu-CONH--CH2 CH(OH)-1-C10 H7]
350	CCC(NC(=O)C(CC(C)C)NC(=O)OCc1ccccc1)C(=O)C(=O)NCC(O)c1ccc2ccccc2c1 (stereo not drawn) [Z-Leu-Abu-CONH-CH2 CH(OH)-2-C10 H7, Z-Leu-Abu-CONH--CH2 CH(OH)-2-C10 H7]

same assay, conditions: Table 3, M1 CO-Leu--AA--CONH-R; read-out: KI Cal I

SMILES	Ki [nM]
CCNC(=O)C(=O)C(CC)NC(=O)C(CC(C)C)NC(=O)c1cnccn1 (stereo not drawn) [2-pyrazinyl-CO-Leu-Abu-CONH-Et, 2-Pyrazinyl-CO-Leu-Abu-CONHEt]	300
CCNC(=O)C(=O)C(CC)NC(=O)C(CC(C)C)NC(=O)C1CCCO1 (stereo not drawn) [2-tetrahydrofuryl-CO-Leu-Abu-CONH-Et, 2-Tetrahydrofuryl-CO-Leu-Abu-CONHEt]	18500
CCNC(=O)C(=O)C(CC)NC(=O)C(CC(C)C)NC(=O)c1cccnc1 (stereo not drawn) [3-pyridyl-CO-Leu-Abu-CONH-Et, 3-Pyridyl-CO-Leu-Abu-CONHEt]	1300

Now from value to compound:

Ki [nM]	SMILES
350	CCNC(=O)C(=O)C(CC)NC(=O)C(CC(C)C)NC(=O)c1nccc2ccccc12 (stereo not drawn) [1-isoquinolinyl-CO-Leu-Abu-CONH-Et, 1-Isoquinolinyl-CO-Leu-Abu-CONHEt]
850	CCNC(=O)C(=O)C(CC)NC(=O)C(CC(C)C)NC(=O)c1ccco1 (stereo not drawn) [2-furyl-CO-Leu-Abu-CONH-Et, 2-Furyl-CO-Leu-Abu-CONHEt]
7900	CCNC(=O)C(=O)C(CC)NC(=O)C(CC(C)C)NC(=O)N1CCOCC1 (stereo not drawn) [4-morpholinyl-CO-Leu-Abu-CONH-Et, 4-Morpholinyl-CO-Leu-Abu-CONHEt]
3800	CCNC(=O)C(=O)[C@H](CC)NC(=O)[C@H](CC(C)C)NC(=O)CCC(=O)OC [CH3 OCO(CH2)2-CO-Leu-Abu-CONH-Et, CH3 OCO(CH2)2 CO-Leu-Abu-CONHEt]
750	CCC(NC(=O)C(CC(C)C)NC(=O)C(c1ccccc1)c1ccccc1)C(=O)C(=O)NCC(O)c1ccccc1 (stereo not drawn) [Ph2 CH-CO-Leu-Abu-CONH-CH2 CH(OH)Ph, Ph2 CHCO-Leu-Abu-CONH--CH2 CH(OH)Ph]

Source: patent US5514694A, “Peptidyl ketoamides” (Georgia Tech Research Corp, priority 1993, dated 1996)
